Target: human recombinant KAT-II (Homo sapiens (Human), UniProt Q8N5Z0)
Assay: KAT-II inhibitory test
Type: biochemical
Conditions: 3.0 μmol/L kynurenine, 37° C., 1 hr, pH 8.0; kynurenic acid quantified by HPLC
Method in brief: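 E. coli-expressed His/MBP-tagged human KAT-II (2.0 ng/μL) incubated with 3.0 μmol/L kynurenine and 10 μmol/L pyridoxal phosphate in Tris-acetate pH 8.0, 1 hr at 37 °C. Reaction stopped with TCA. Kynurenic acid quantified by reversed-phase HPLC with fluorescence detection (ex 354/em 460 nm), duplicate at each concentration.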

human recombinant KAT-II, sequence (Q8N5Z0 30-425): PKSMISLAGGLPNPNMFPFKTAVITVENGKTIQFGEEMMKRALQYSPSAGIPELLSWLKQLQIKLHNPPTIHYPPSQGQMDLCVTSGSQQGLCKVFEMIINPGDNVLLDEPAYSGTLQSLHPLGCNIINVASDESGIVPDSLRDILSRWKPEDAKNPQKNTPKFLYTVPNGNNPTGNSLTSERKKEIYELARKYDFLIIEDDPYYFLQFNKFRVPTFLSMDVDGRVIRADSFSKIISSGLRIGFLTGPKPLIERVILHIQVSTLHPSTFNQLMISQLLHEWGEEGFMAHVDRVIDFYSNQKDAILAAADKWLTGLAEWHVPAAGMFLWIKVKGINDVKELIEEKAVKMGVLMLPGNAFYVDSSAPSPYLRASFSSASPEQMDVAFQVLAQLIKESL

| Structure (SMILES) | IC50 |
| --- | --- |
| O=C(NCc1ccccc1)[C@H]1CCCN1c1ccc2nc(-c3ccccc3F)[nH]c(=O)c2n1 [Example 713, (R)-N-benzyl-1-[2-(2-fluorophenyl)-4-oxo-3,4-dihydropyrido[3,2-d]pyrimidin-6-yl]pyrrolidine-2-carboxamide] | 88 nM |
| O=C(NCc1ccccc1)[C@H]1CCCN1c1ccc2nc(-c3ccccc3)cc(=O)n2n1 [Example 714, (R)-N-benzyl-1-(4-oxo-2-phenyl-4H-pyrimido[1,2-b]pyridazin-7-yl)pyrrolidine-2-carboxamide] | 590 nM |
| CCCc1cc(=O)n2nc(N3CCC[C@@H]3C(=O)NC3(c4ccccc4)CC3)ccc2n1 [Example 718, (R)-1-(4-oxo-2-propyl-4H-pyrimido[1,2-b]pyridazin-7-yl)-N-(1-phenylcyclopropyl)pyrrolidine-2-carboxamide] | 310 nM |
| O=C(NCc1ccccc1)[C@H]1CCCN1c1nc2c(=O)[nH]c(N3CCCCC3)nc2s1 [Example 728, (R)-N-benzyl-1-[7-oxo-5-(piperidin-1-yl)-6,7-dihydro[1,3]thiazolo[5,4-d]pyrimidin-2-yl]pyrrolidine-2-carboxamide] | 24 nM |

Next, values leading:

| IC50 | Structure (SMILES) |
| --- | --- |
| 62 nM | CC(C)c1nc2ccc(N3CCC[C@@H]3C(=O)NCc3ccccc3)nc2c(=O)[nH]1 [Example 712, (R)-N-benzyl-1-[4-oxo-2-(propan-2-yl)-3,4-dihydropyrido[3,2-d]pyrimidin-6-yl]pyrrolidine-2-carboxamide] |
| 550 nM | CC(C)c1cc(=O)n2nc(N3CCC[C@@H]3C(=O)NCc3ccccc3)ccc2n1 [Example 720, (R)-N-benzyl-1-[4-oxo-2-(propan-2-yl)-4H-pyrimido[1,2-b]pyridazin-7-yl]pyrrolidine-2-carboxamide] |
| 89 nM | CC(C)c1nc2ccc(N3CCC[C@@H]3C(=O)NCc3ccccc3)nn2c(=O)c1F [Example 722, (R)-N-benzyl-1-[3-fluoro-4-oxo-2-(propan-2-yl)-4H-pyrimido[1,2-b]pyridazin-7-yl]pyrrolidine-2-carboxamide] |

— patent US10065972B2, “Bicyclic or tricyclic heterocyclic compound” (MITSUBISHI TANABE PHARMA CORPORATION, priority 2014, dated 2018)
